From patent US10472341B2, “Bicyclic tetrahydrothiazepine derivatives useful for the treatment of neoplastic and/or infectious diseases” (APEIRON BIOLOGICS AG, priority 2015, dated 2019)
Structures can show the parent of a compound that is named as a salt. Where two headings read alike, the source gives them in different places.

Columns and labels:
Format in all cases: cell-based
[1] = tested on: CD8 T cells; assay: CD69 expression on aCD3/aCD28 stimulated isolated human CD8 T cells (flow cytometry); details: T-cell, 24 h after TCR stimulation, read-out: Activity Class CD69 (CD8)
Procedure: (§1) Isolated T cells were plated in Xvivo medium at 1.5*10 ^5 cells per in 96 well culture plates and TCR-stimulated with anti-CD3/28 mAbs in the presence of compound as indicated. Cytokine production was determined at 24 h or 48 h following TCR stimulation in cell culture supernatants using commercially available ELISA kits (BD and eBioscience) as recommended by the manufacturer. T cell proliferation and CD25 expression (CD25-PC5 reagent purchased from Beckman Coulter) was determined by flow cytometry (Beckman-Coulter FC500) and analysed with Kaluza Software. For measurement of CD69 expression, isolated CD4 and CD8 T cells were plated in Xvivo medium at […] per in 96 well culture plates and TCR-stimulated with anti-CD3/28 mAbs in the presence of compound. CD69 expression was determined at 24 h following TCR stimulation by flow cytometry (CD4eF450, CD8APCeF780 and CD69-PC7 reagent purchased from eBioscience) and analysed with Kaluza Software.
(§2) For measurement of CD69 expression, isolated CD4 and CD8 T cells were plated in Xvivo medium at 80000 cells per in 96 well culture plates and TCR-stimulated with anti-CD3/28 mAbs in the presence of compound. CD69 expression was determined at 24 h following TCR stimulation by flow cytometry (CD4eF450, CD8APCeF780 and CD69-PC7 reagent purchased from eBioscience) and analysed with Kaluza Software.

[2] = tested on: CD4 T cells; assay: CD69 expression on aCD3/aCD28 stimulated isolated human CD4 T cells (flow cytometry); details: 24 h after TCR stimulation, read-out: Activity Class CD69 (CD4)
Procedure: as §1, §2

[3] = tested on: aCD3/aCD28-stimulated human PBMCs; assay: Cytokine production in aCD3/aCD28 stimulated human PBMCs; details: PBMC, 18 h
In short: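 Ficoll-isolated human PBMCs at 1e6 cells/mL in X-Vivo15, stimulated with soluble anti-CD3/CD28 (OKT3 and 28.2, 1 μg/mL each) plus compound for 18 h at 37° C. Supernatant cytokines quantified by MSD or HTRF.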

[4] = enhancement of IFN-γ production, read-out: Activity Class IFN-γ
[5] = enhancement of IL-2 production, read-out: Activity Class IL-2

| SMILES | EC50 [1] | EC50 [2] | EC50 [3, 4] | EC50 [3, 5] |
| --- | --- | --- | --- | --- |
| N[C@H]1CS(=O)(=O)c2cc(F)c(C(=O)NCc3ccccc3)cc2N(Cc2ccc(F)cc2)C1=O [Example 134, (3R)-3-amino-N-benzyl-8-fluoro-5-[(4-fluorophenyl)methyl]-1,1,4-trioxo-2,3,4,5-tetrahydro-1λ^6,5-benzothiazepine-7-carboxamide hydrochloride] | < 1580 nM | < 1580 nM | < 1580 nM | < 1580 nM |
| N[C@H]1CS(=O)(=O)c2cc(F)c(C(=O)NCCC3CCOCC3)cc2N(Cc2ccc(Cl)cc2)C1=O [Example 135, (3R)-3-amino-5-[(4-chlorophenyl)methyl]-8-fluoro-N-[2-(oxan-4-yl)ethyl]-1,1,4-trioxo-2,3,4,5-tetrahydro-1λ^6,5-benzothiazepine-7-carboxamide hydrochloride] | 1580 to 5010 nM | 1580 to 5010 nM | < 1580 nM | 1580 to 5010 nM |
| N[C@H]1CS(=O)(=O)c2cc(F)c(C(=O)NCCCC(F)(F)F)cc2N(Cc2ccccc2)C1=O [Example 136, (3R)-3-amino-5-benzyl-8-fluoro-1,1,4-trioxo-N-(4,4,4-trifluorobutyl)-2,3,4,5-tetrahydro-1λ^6,5-benzothiazepine-7-carboxamide hydrochloride] | < 1580 nM | < 1580 nM | < 1580 nM | < 1580 nM |
| COc1ccc(CNC(=O)c2cc3c(cc2F)S(=O)(=O)C[C@H](N)C(=O)N3Cc2ccc(Cl)cc2)cc1 [Example 137, (3R)-3-amino-5-[(4-chlorophenyl)methyl]-8-fluoro-N-[(4-methoxyphenyl)methyl]-1,1,4-trioxo-2,3,4,5-tetrahydro-1λ^6,5-benzothiazepine-7-carboxamide hydrochloride] | < 1580 nM | < 1580 nM | < 1580 nM | < 1580 nM |
| N[C@H]1CS(=O)(=O)c2cc(F)c(C(=O)NCC3CCOCC3)cc2N(Cc2ccc(F)cc2)C1=O [Example 139, (3R)-3-amino-8-fluoro-5-[(4-fluorophenyl)methyl]-N-[(oxan-4-yl)methyl]-1,1,4-trioxo-2,3,4,5-tetrahydro-1λ^6,5-benzothiazepine-7-carboxamide hydrochloride] | > 5010 nM | 1580 to 5010 nM | 1580 to 5010 nM | 1580 to 5010 nM |
| N[C@H]1CS(=O)(=O)c2cc(F)c(C(=O)NC3CC(F)(F)C3)cc2N(Cc2ccc(F)cc2)C1=O [Example 140, (3R)-3-amino-N-(3,3-difluorocyclobutyl)-8-fluoro-5-[(4-fluorophenyl)methyl]-1,1,4-trioxo-2,3,4,5-tetrahydro-1λ^6,5-benzothiazepine-7-carboxamide hydrochloride] | > 5010 nM | 1580 to 5010 nM | 1580 to 5010 nM | 1580 to 5010 nM |
| COc1ccc(CN2C(=O)[C@@H](N)CS(=O)(=O)c3cc(F)c(C(=O)NCCCC(F)(F)F)cc32)cc1 [Example 141, (3R)-3-amino-8-fluoro-5-[(4-methoxyphenyl)methyl]-1,1,4-trioxo-N-(4,4,4-trifluorobutyl)-2,3,4,5-tetrahydro-1λ^6,5-benzothiazepine-7-carboxamide] | < 1580 nM | < 1580 nM | < 1580 nM | < 1580 nM |
| COc1ccc(CN2C(=O)[C@@H](N)CS(=O)(=O)c3cc(F)c(C(=O)NCC4CCOCC4)cc32)cc1 [Example 142, (3R)-3-amino-8-fluoro-5-[(4-methoxyphenyl)methyl]-N-[(oxan-4-yl)methyl]-1,1,4-trioxo-2,3,4,5-tetrahydro-1λ^6,5-benzothiazepine-7-carboxamide] | > 5010 nM | > 5010 nM | 1580 to 5010 nM | 1580 to 5010 nM |
| COc1ccc(CN2C(=O)[C@@H](N)CS(=O)(=O)c3cc(F)c(C(=O)NC4CC4(F)F)cc32)cc1 (stereo partly drawn) [Example 143, (3R)-3-amino-N-(2,2-difluorocyclopropyl)-8-fluoro-5-[(4-methoxyphenyl)methyl]-1,1,4-trioxo-2,3,4,5-tetrahydro-1λ^6,5-benzothiazepine-7-carboxamide] | > 5010 nM | 1580 to 5010 nM | 1580 to 5010 nM | 1580 to 5010 nM |
| N[C@H]1CS(=O)(=O)c2ccc(C(=O)NC3CC(F)(F)C3)cc2N(Cc2ccc(Cl)cc2)C1=O [Example 145, (3R)-3-amino-5-[(4-chlorophenyl)methyl]-N-(3,3-difluorocyclobutyl)-1,1,4-trioxo-2,3,4,5-tetrahydro-1λ^6,5-benzothiazepine-7-carboxamide] | < 1580 nM | < 1580 nM | 1580 to 5010 nM | 1580 to 5010 nM |
| N[C@H]1CS(=O)(=O)c2cc(F)c(C(=O)N[C@H]3CCC(F)(F)C3)cc2N(Cc2ccc(Cl)cc2)C1=O [Example 146, (3R)-3-amino-5-[(4-chlorophenyl)methyl]-N-[(1S)-3,3-difluorocyclopentyl]-8-fluoro-1,1,4-trioxo-2,3,4,5-tetrahydro-1λ^6,5-benzothiazepine-7-carboxamide] | 1580 to 5010 nM | 1580 to 5010 nM | < 1580 nM | < 1580 nM |
| COc1ccc(CN2C(=O)[C@@H](N)CS(=O)(=O)c3ccc(C(=O)NCCCC(F)(F)F)cc32)cc1 [Example 150, (3R)-3-amino-5-[(4-methoxyphenyl)methyl]-1,1,4-trioxo-N-(4,4,4-trifluorobutyl)-2,3,4,5-tetrahydro-1λ^6,5-benzothiazepine-7-carboxamide] | > 5010 nM | > 5010 nM | 1580 to 5010 nM | 1580 to 5010 nM |
| COc1ccc(CNC(=O)c2ccc3c(c2)N(Cc2ccc(OC)cc2)C(=O)[C@@H](N)CS3(=O)=O)cc1 [Example 151, (3R)-3-amino-N,5-bis[(4-methoxyphenyl)methyl]-1,1,4-trioxo-2,3,4,5-tetrahydro-1λ^6,5-benzothiazepine-7-carboxamide] | < 1580 nM | 1580 to 5010 nM | 1580 to 5010 nM | 1580 to 5010 nM |
| COc1ccc(CNC(=O)c2ccc3c(c2)N(Cc2ccccc2)C(=O)[C@@H](N)CS3(=O)=O)cc1 [Example 152, (3R)-3-amino-5-benzyl-N-[(4-methoxyphenyl)methyl]-1,1,4-trioxo-2,3,4,5-tetrahydro-1λ^6,5-benzothiazepine-7-carboxamide] | 1580 to 5010 nM | 1580 to 5010 nM | 1580 to 5010 nM | > 5010 nM |
| COc1ccc(CNC(=O)c2ccc3c(c2)N(Cc2ccc(Cl)cc2)C(=O)[C@@H](N)CS3(=O)=O)cc1 [Example 153, (3R)-3-amino-5-[(4-chlorophenyl)methyl]-N-[(4-methoxyphenyl)methyl]-1,1,4-trioxo-2,3,4,5-tetrahydro-1λ^6,5-benzothiazepine-7-carboxamide] | < 1580 nM | < 1580 nM | < 1580 nM | < 1580 nM |
| COc1ccc(CN2C(=O)[C@@H](N)CS(=O)(=O)c3ccc(C(=O)NC4CCC(F)(F)CC4)cc32)cc1 [Example 154, (3R)-3-amino-N-(4,4-difluorocyclohexyl)-5-[(4-methoxyphenyl)methyl]-1,1,4-trioxo-2,3,4,5-tetrahydro-1λ^6,5-benzothiazepine-7-carboxamide] | < 1580 nM | 1580 to 5010 nM | 1580 to 5010 nM | > 5010 nM |
| N[C@H]1CS(=O)(=O)c2ccc(C(=O)NCCC(F)(F)F)cc2N(Cc2ccc(Cl)cc2)C1=O [Example 155, (3R)-3-amino-5-[(4-chlorophenyl)methyl]-1,1,4-trioxo-N-(3,3,3-trifluoropropyl)-2,3,4,5-tetrahydro-1λ^6,5-benzothiazepine-7-carboxamide] | < 1580 nM | < 1580 nM | 1580 to 5010 nM | 1580 to 5010 nM |
| N[C@H]1CS(=O)(=O)c2ccc(C(=O)N[C@@H]3CC3(F)F)cc2N(Cc2ccc(Cl)cc2)C1=O [Example 158, (3R)-3-amino-5-[(4-chlorophenyl)methyl]-N-[(1R)-2,2-difluorocyclopropyl]-1,1,4-trioxo-2,3,4,5-tetrahydro-1λ^6,5-benzothiazepine-7-carboxamide] | 1580 to 5010 nM | 1580 to 5010 nM | < 1580 nM | 1580 to 5010 nM |
| N[C@H]1CS(=O)(=O)c2ccc(C(=O)N[C@@H]3CC3(F)F)cc2N(Cc2ccc(C3CC3)cc2)C1=O [Example 159, (3R)-3-amino-5-[(4-cyclopropylphenyl)methyl]-N-[(1R)-2,2-difluorocyclopropyl]-1,1,4-trioxo-2,3,4,5-tetrahydro-1λ^6,5-benzothiazepine-7-carboxamide] | < 1580 nM | < 1580 nM | 1580 to 5010 nM | 1580 to 5010 nM |
| N[C@H]1CS(=O)(=O)c2ccc(C(=O)N[C@@H]3CC3(F)F)cc2N(Cc2ccc(OC(F)F)cc2)C1=O [Example 160, (3R)-3-amino-N-[(1R)-2,2-difluorocyclopropyl]-5-{[4-(difluoromethoxy)phenyl]methyl}-1,1,4-trioxo-2,3,4,5-tetrahydro-1λ^6,5-benzothiazepine-7-carboxamide] | 1580 to 5010 nM | < 1580 nM | > 5010 nM | > 5010 nM |
